Measured values: PMC8388802, “Study on the Structure-Activity Relationship of an Antimicrobial Peptide, Brevinin-2GUb, from the Skin Secretion of Hylarana guentheri” (Antibiotics, 2021)
Values after ≈ are worked out from the molar mass of the structure shown. Where a SMILES comes first, the peptide text is derived from it.

Key:
[1] = test system: E. coli (ATCC CRM 8739); format: cell-based, Escherichia coli
Experimental: (§1) The method of antimicrobial assay is based on the Methods for Dilution Antimicrobial Susceptibility Tests for Bacteria that Grow Aerobically from the Clinical and Laboratory Standards Institute (CLSI).The antimicrobial activities of peptides were evaluated against Gram-positive bacteria S. aureus (ATCC 6538), MRSA (NCTC 12493), E. faecalis (NCTC 12493), Gram-negative bacteria E. coli (ATCC CRM 8739), K. pneumoniae (ATCC 43816), P. aeruginosa (ATCC CRM 9027), yeast C. albicans (ATCC CRM 10231) and clinical isolates MRSA (B042 V2E1 A), E. coli (ATCC BAA-2340), K. pneumoniae (ATCC BAA-1705), P. aeruginosa (B004 V2S2 B).
(§2) At the first stage of the assay, 20 μL bacteria were cultured in 100 mL Mueller Hinton Broth (MHB) or Yeast Extract–Peptone–Dextrose broth (YPD-B), respectively, and was incubated overnight. Then, microorganisms were subcultured in 20 mL fresh MHB or YPD-B to achieve cultures in the logarithmic phase (1 × 10^8 CFU/mL), which can be verified by optical density (OD) (The OD of Gram-positive bacteria is 0.23, OD of Gram-negative bacteria is 0.4, and OD of yeast is 0.15), and viable cell counts. Then, the medium was used to dilute the cultures to specific cell densities (Gram-negative and Gram-positive bacteria: 5 × 10^5 CFU/mL; yeast: 1 × 10^6 CFU/mL), which were the final concentrations of bacterial suspensions used in the assay. The peptides were dissolved in DMSO to reach a final concentration of 512 µM. A series of two-fold dilutions ranging from 512 µM to 1 µM were dosed in the 96-well plates.
(§3) Antimicrobial assays were conducted in 96-well plates, which were divided into five groups, including a negative control group (PBS), a positive control group (20 μg/mL norfloxacin for bacteria and 10 μg/mL amphotericin B for yeast), vehicle control (1% DMSO), blank control (MHB or YPD-B), and a peptide group. Each microorganism had five repetitions, and each well contained 1 µL corresponding solution and 99 µL culture. After incubation at 37 °C overnight, the absorbance of each well was tested by a microplate reader (EL808, Biolise BioTek Winooski, Minneapolis, USA) under a 550 nm wavelength. The MIC is the lowest concentration at which no bacterial growth can be observed.
(§4) The next day, 10 µL of every clear well was taken out to be cultured on a Mueller Hinton Agar (MHA) plate and incubated at 37 °C for 16–20 h. The MBC is the lowest concentration without any bacterial colonies, which means at this concentration, the peptide reduces the viability of the pathogen by more than 99.9%.

[2] = test system: P. aeruginosa (ATCC CRM 9027) biofilm; format: cell-based, Pseudomonas aeruginosa; settings: ATCC CRM 9027, 24 h
Experimental: (§5) The anti-biofilm activities of the peptides against S. aureus (ATCC 6538), MRSA (NCTC 12493), E. faecalis (NCTC 12493), E. coli (ATCC CRM 8739), K. pneumoniae (ATCC 43816), and P. aeruginosa (ATCC CRM 9027) were evaluated.
(§6) The bacteria were inoculated in a different medium (Gram-positive bacteria were in TSB and Gram-negative bacteria were in LB) overnight, and the subculture was conducted in the same medium. When the bacteria reached a specific density, 100 µL of the dilution was added to each well of the 96-well microplate. Then 1 µL of peptide at a series of concentrations, the same concentration in the antimicrobial assay, were added into the well together with the bacteria. The plates were put into a moist shaking incubator with a speed of 200 rpm, and the temperature was set at 37 ℃. After a 24-h incubation, the liquid in the wells was aspirated, and each was washed twice by 100 µL PBS. One hundred µL of methanol were added into each well to stabilise the biofilm. After air-drying, 100 µL crystal violet was used to dye the biofilm, and they were dissolved in the 100 µL glacial acidic acid after drying. The solutions were transferred to a new microplate, and the absorbance of each well was tested by a microplate reader (EL808, Biolise BioTek Winooski, Minneapolis, MN, USA) at 595 nm wavelength. MBIC was the minimum concentration of the peptide showing no biofilm formation.
(§7) The bacteria were inoculated in a different medium (Gram-positive bacteria were in TSB and Gram-negative bacteria were in LB) overnight, and the subculture was conducted in the same medium. When the bacteria reached a specific density, 100 µL of the dilution was added to each well of the 96-well microplates. The plates were put into a moist shaking incubator with a speed of 200 rpm and the temperature was 37 ℃. After a 24 h incubation, the liquid in the wells was aspirated and they were washed twice by 100 µL PBS of each well. The peptides with the same concentrations were diluted in the corresponding medium and 100 µL were added into each well. After a 24-h incubation, the liquid in the wells was aspirated and they were washed twice by 100 µL PBS. One hundred µL of methanol were added into the wells to stabilise the biofilms. After being air-dried, 100 µL crystal violet was used to dye the biofilm, and they were dissolved in the 100 µL glacial acidic acid after drying. The solutions were transferred to a new microplate, and the absorbance of each well was tested by a microplate reader (EL808, Biolise BioTek Winooski, Minneapolis, USA) at 595 nm wavelength.

[3] = test system: E. faecalis (NCTC 12493); format: cell-based, Enterococcus faecalis
Experimental: as §1, §2, §3, §4

[4] = test system: MRSA (B042 V2E1 A); format: cell-based, Methicillin-resistant Staphylococcus aureus
Experimental: as §1, §2, §3, §4

[5] = test system: MRSA (NCTC 12493); format: cell-based, Methicillin-resistant Staphylococcus aureus
Experimental: as §1, §2, §3, §4

[6] = test system: E. coli (ATCC CRM 8739) biofilm; format: cell-based, Escherichia coli; settings: ATCC CRM 8739, 24 h
Experimental: as §5, §6, §7

SMILES | MBC [1] | MIC [1] | MBEC [2] | MBIC [2] | MBC [3] | MIC [3] | MBC [4] | MIC [4] | MBC [5] | MIC [5] | MBEC [6] | MBIC [6]
CC[C@H](C)[C@H](NC(=O)[C@@H](NC(=O)CN)C(C)C)C(=O)N[C@H](C(=O)N[C@@H](CC(=O)O)C(=O)N[C@H](C(=O)N[C@@H](CC(C)C)C(=O)N[C@@H](CCCCN)C(=O)NCC(=O)N[C@@H](C)C(=O)N[C@@H](C)C(=O)N[C@@H](CCCCN)C(=O)N[C@H](C(=O)N[C@H](C(=O)N[C@@H](C)C(=O)N[C@@H](C)C(=O)N[C@@H](CCC(=O)O)C(=O)N[C@@H](CC(C)C)C(=O)N[C@@H](CC(C)C)C(=O)N[C@@H](CCCNC(=N)N)C(=O)N[C@@H](CCCCN)C(=O)N[C@@H](C)C(=O)N[C@@H](Cc1c[nH]cn1)C(N)=O)C(C)C)[C@@H](C)O)[C@@H](C)O)[C@@H](C)CC [tB2U] (H-GVIIDTLKGAAKTVAAELLRKAH-NH2) | 128 µM (≈ 304 µg/mL) | 128 µM (≈ 304 µg/mL) | >512 µM | >512 µM | >512 µM | >512 µM | >512 µM | >512 µM | >512 µM | >512 µM | >512 µM | >512 µM
CC[C@H](C)[C@H](NC(=O)[C@@H](NC(=O)CN)C(C)C)C(=O)N[C@H](C(=O)N[C@@H](CCCCN)C(=O)N[C@H](C(=O)N[C@@H](CC(C)C)C(=O)N[C@@H](CCCCN)C(=O)NCC(=O)N[C@@H](C)C(=O)N[C@@H](C)C(=O)N[C@@H](CCCCN)C(=O)N[C@H](C(=O)N[C@H](C(N)=O)C(C)C)[C@@H](C)O)[C@@H](C)O)[C@@H](C)CC [Peptide 14-tB2U-K] (H-GVIIKTLKGAAKTV-NH2) | >512 µM | >512 µM | >512 µM | >512 µM | >512 µM | >512 µM | >512 µM | >512 µM | >512 µM | >512 µM | >512 µM | >512 µM
CC[C@H](C)[C@H](NC(=O)[C@@H](NC(=O)CN)C(C)C)C(=O)N[C@H](C(=O)N[C@@H](CCCCN)C(=O)N[C@H](C(=O)N[C@@H](CC(C)C)C(=O)N[C@@H](CCCCN)C(=O)NCC(=O)N[C@@H](C)C(=O)N[C@@H](C)C(=O)N[C@@H](CCCCN)C(=O)N[C@H](C(=O)N[C@H](C(=O)N[C@@H](C)C(=O)N[C@@H](C)C(=O)N[C@@H](CCCCN)C(=O)N[C@@H](CC(C)C)C(=O)N[C@@H](CC(C)C)C(N)=O)C(C)C)[C@@H](C)O)[C@@H](C)O)[C@@H](C)CC [tB2U-K] (H-GVIIKTLKGAAKTVAAKLL-NH2) | 8 µM (≈ 15.2 µg/mL) | 8 µM (≈ 15.2 µg/mL) | > 512 µM | 128 µM | 32 µM (≈ 60.6 µg/mL) | 32 µM (≈ 60.6 µg/mL) | >512 µM | >512 µM | 128 µM (≈ 242 µg/mL) | 128 µM (≈ 242 µg/mL) | > 512 µM | 16 µM
CC[C@H](C)[C@H](NC(=O)[C@@H](NC(=O)CN)C(C)C)C(=O)N[C@H](C(=O)N[C@@H](CCCCN)C(=O)N[C@H](C(=O)N[C@@H](CC(C)C)C(N)=O)[C@@H](C)O)[C@@H](C)CC [Peptide 7-tB2U-K] (H-GVIIKTL-NH2) | >512 µM | >512 µM | >512 µM | >512 µM | >512 µM | >512 µM | >512 µM | >512 µM | > 512 µM | 256 µM (≈ 190 µg/mL) | >512 µM | >512 µM
CC[C@H](C)[C@H](NC(=O)[C@@H](NC(=O)CN)C(C)C)C(=O)N[C@H](C(=O)N[C@@H](CCCCN)C(=O)N[C@@H](CCCCN)C(=O)N[C@@H](CC(C)C)C(=O)N[C@@H](CCCCN)C(=O)NCC(=O)N[C@@H](C)C(=O)N[C@@H](C)C(=O)N[C@@H](CCCCN)C(=O)N[C@@H](CCCCN)C(=O)N[C@H](C(=O)N[C@@H](C)C(=O)N[C@@H](C)C(=O)N[C@@H](CCCCN)C(=O)N[C@@H](CC(C)C)C(=O)N[C@@H](CC(C)C)C(N)=O)C(C)C)[C@@H](C)CC [tB2U-6K] (H-GVIIKKLKGAAKKVAAKLL-NH2) | 2 µM (≈ 3.9 µg/mL) | 2 µM (≈ 3.9 µg/mL) | > 512 µM | 32 µM | 64 µM (≈ 125 µg/mL) | 64 µM (≈ 125 µg/mL) | 256 µM (≈ 499 µg/mL) | 256 µM (≈ 499 µg/mL) | 128 µM (≈ 249 µg/mL) | 64 µM (≈ 125 µg/mL) | > 512 µM | 2 µM
CC[C@H](C)[C@H](NC(=O)[C@@H](NC(=O)CN)C(C)C)C(=O)N[C@H](C(=O)N[C@@H](CC(=O)O)C(=O)N[C@H](C(=O)N[C@@H](CC(C)C)C(=O)N[C@@H](CCCCN)C(=O)NCC(=O)N[C@@H](C)C(=O)N[C@@H](C)C(=O)N[C@@H](CCCCN)C(=O)N[C@H](C(=O)N[C@H](C(=O)N[C@@H](C)C(=O)N[C@@H](C)C(=O)N[C@@H](CCC(=O)O)C(=O)N[C@@H](CC(C)C)C(=O)N[C@@H](CC(C)C)C(N)=O)C(C)C)[C@@H](C)O)[C@@H](C)O)[C@@H](C)CC [tB2U-α] (H-GVIIDTLKGAAKTVAAELL-NH2) | >512 µM | >512 µM | >512 µM | >512 µM | >512 µM | >512 µM | >512 µM | >512 µM | >512 µM | >512 µM | >512 µM | >512 µM
